The results in this text go back to ChEMBL document CHEMBL1201862, “PubChem BioAssay data set” (2004).

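These data come from cells grown in 96-well plates and exposed to compound for 48 hours at five concentrations. At the GI50, growth is halved.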 Activity calls are given as the source filed them. Rule as the data show it: active = GI50 up to about 1.1 µM and inactive = higher.

Some test systems named below: Malme-3M; RXF 393; IGROV-1; KM12; M14; HOP-62; NCI-H226; K562; HOP-92; SK-MEL-2; EKVX; SK-MEL-5; HL-60; SK-MEL-28; SR; SF-268.
Common to all, as to assay: NCI anticancer screen, dose series, 48 h

With `COC(=O)c1c(-c2cc(OC)c(OC)c(OC)c2)oc2ccccc2c1=O`, the GI50 with Malme-3M was > 100 µM (inactive); in the assay with RXF 393, 53.6 µM (inactive); in the assay on IGROV-1 it was > 100 µM (inactive); with KM12, > 100 µM (inactive); in the assay on M14, > 100 µM (inactive); in the assay with HOP-62, > 100 µM (inactive). In addition, the GI50 with NCI-H226 was > 100 µM (inactive); in the assay on K562, 42.8 µM (inactive); with HOP-92 it was 96.6 µM (inactive); in the assay with SK-MEL-2, > 100 µM (inactive); in the assay on EKVX it was > 100 µM (inactive); in the assay with SK-MEL-5, 59.7 µM (inactive). In the assay with HL-60, the GI50 is 36.7 µM (inactive).

In the case of `CN(C)CCNC(=O)Cc1ccccc1Nc1c(Cl)cccc1Cl`, the GI50 was 18.5 µM (inactive) in the assay with SK-MEL-28; 15.3 µM (inactive) in the assay on RXF 393; 19.1 µM (inactive) with IGROV-1; 18.5 µM (inactive) in the assay with KM12; 17.3 µM (inactive) in the assay with M14; 15 µM (inactive) in the assay on HOP-62. The GI50 in the assay on NCI-H226 is 17.9 µM (inactive); with SR, 15.2 µM (inactive); in the assay with K562 it was 15.3 µM (inactive); in the assay with SF-268 it was 18.2 µM (inactive); with EKVX it was 17.4 µM (inactive); in the assay with SK-MEL-5, 15 µM (inactive). In the assay with HL-60, the GI50 is 14.7 µM (inactive).

With `CN1C(=O)C(=O)N2c3ccc(Cl)cc3C3(c4ccccc4)N=CC12O3` (stereo unspecified), the GI50 was 3.44 µM (inactive) in the assay on SK-MEL-28; 20 µM (inactive) in the assay on Malme-3M; 1.9 µM (inactive) in the assay on RXF 393; 7.28 µM (inactive) with IGROV-1; 3.55 µM (inactive) in the assay on KM12; 3.21 µM (inactive) in the assay on M14. Moreover, the GI50 in the assay with HOP-62 was 15 µM (inactive); in the assay with NCI-H226, 10.1 µM (inactive); in the assay on K562, 3.45 µM (inactive); in the assay on HOP-92 it was 2.39 µM (inactive); in the assay with SK-MEL-2 it was 6.01 µM (inactive); in the assay with SF-268, 7.53 µM (inactive). The GI50 in the assay with EKVX was 8.87 µM (inactive); in the assay on SK-MEL-5 it was 5.52 µM (inactive); in the assay on HL-60 it was 2.25 µM (inactive).

For `Cc1ccc(NC(=O)CCC(=O)C(C#N)c2ccc(Cl)cc2)cc1C` (stereo unspecified), the GI50 in the assay with SK-MEL-28, in the assay with Malme-3M, in the assay on RXF 393, with IGROV-1, in the assay on KM12 and with M14 was > 100 µM (inactive) each time. Besides, the GI50 with HOP-62, in the assay on NCI-H226, in the assay with K562, with HOP-92, in the assay with SK-MEL-2 and in the assay with SF-268 was > 100 µM (inactive) throughout. Further, the GI50 in the assay with EKVX, in the assay on SK-MEL-5 and in the assay on HL-60 was > 100 µM (inactive) throughout.

Turning to `O=c1[nH]cc(C(F)(C(F)(F)F)C(F)(F)F)c(=O)[nH]1`, the GI50 in the assay with SK-MEL-28, with Malme-3M, with RXF 393, with IGROV-1, in the assay on KM12 and in the assay with M14 was > 100 µM (inactive) in each case. Further, the GI50 with HOP-62, in the assay with NCI-H226, with K562, with HOP-92, in the assay with SK-MEL-2 and in the assay with SF-268 was > 100 µM (inactive) throughout. Also, the GI50 in the assay with EKVX, in the assay on SK-MEL-5 and in the assay on HL-60 was > 100 µM (inactive) in each case.

`CN(C)/C(F)=P\C(F)(F)F` (stereo unspecified): the GI50 in the assay on SK-MEL-28, in the assay on Malme-3M, in the assay on RXF 393, in the assay on IGROV-1, in the assay with KM12 and with M14 was > 100 µM (inactive) throughout. Also, the GI50 in the assay with HOP-62, in the assay with NCI-H226, with K562, with HOP-92, with SK-MEL-2 and in the assay with SF-268 was > 100 µM (inactive) throughout. Moreover, the GI50 in the assay on EKVX, in the assay with SK-MEL-5 and in the assay with HL-60 was > 100 µM (inactive) in each case.

Take `COC(=O)C1CC/C(=N/c2ccc(C)cc2C)N1` (stereo unspecified): the GI50 in the assay on SK-MEL-28, in the assay with Malme-3M, in the assay with IGROV-1, in the assay on KM12, in the assay with M14 and with HOP-62 was > 100 µM (inactive) each time. Also, the GI50 in the assay on NCI-H226, in the assay on K562, in the assay on HOP-92, in the assay on SK-MEL-2, in the assay on SF-268 and in the assay with EKVX was > 100 µM (inactive) each time. Moreover, the GI50 in the assay with SK-MEL-5 and with HL-60 was > 100 µM (inactive) in each case.

For the molecule `CC(C)NCC(O)COC(=O)c1cccs1` (stereo unspecified), the GI50 with SK-MEL-28, in the assay with Malme-3M, in the assay with RXF 393, in the assay with IGROV-1, in the assay on KM12 and in the assay with M14 was > 100 µM (inactive) in each case. The GI50 in the assay on HOP-62, in the assay on K562, in the assay on HOP-92, in the assay on SK-MEL-2, with SF-268 and in the assay with EKVX was > 100 µM (inactive) in each case. Moreover, the GI50 in the assay with SK-MEL-5 and in the assay on HL-60 was > 100 µM (inactive) throughout.

Regarding `Cc1cc(=O)oc2cc(OCCCOc3ccc4c(C)cc(=O)oc4c3)ccc12`, the GI50 in the assay on SK-MEL-28 is > 100 µM (inactive); in the assay with Malme-3M, > 100 µM (inactive); in the assay with RXF 393, > 100 µM (inactive); with IGROV-1, > 100 µM (inactive); with M14 it was > 100 µM (inactive); in the assay on HOP-62, 63.8 µM (inactive). The GI50 with NCI-H226, in the assay with SR, in the assay with K562, in the assay with SK-MEL-2, in the assay on SF-268 and in the assay on EKVX was > 100 µM (inactive) each time. For the same molecule, the GI50 in the assay on SK-MEL-5 and with HL-60 was > 100 µM (inactive) each time.

Turning to `COc1ccc(O)c(C#N)c1C#N`, the GI50 in the assay on Malme-3M, in the assay with RXF 393, in the assay on IGROV-1, in the assay with KM12, in the assay on M14 and in the assay on HOP-62 was > 100 µM (inactive) each time. Besides, the GI50 with NCI-H226, with K562, with SK-MEL-2, in the assay with SF-268, with EKVX and with SK-MEL-5 was > 100 µM (inactive) each time. For the same molecule, in the assay with HL-60, the GI50 was > 100 µM (inactive).

Turning to `CCOC(=O)Cc1nc2ccccc2s1`, the GI50 is 15 µM (inactive) in the assay with SK-MEL-28; 16.3 µM (inactive) in the assay on Malme-3M; 20.9 µM (inactive) in the assay on RXF 393; 39 µM (inactive) in the assay on IGROV-1; > 10 µM (inactive) in the assay on KM12; 16.6 µM (inactive) in the assay with M14. Further, the GI50 in the assay on HOP-62 was 22.9 µM (inactive); in the assay on NCI-H226, 21.8 µM (inactive); with SR it was 20.1 µM (inactive); in the assay on K562 it was 25.4 µM (inactive); in the assay on SK-MEL-2, 18.2 µM (inactive); in the assay with SF-268, 18.6 µM (inactive). The figures for the GI50 with EKVX, in the assay with SK-MEL-5 and with HL-60 were 39.4 µM (inactive), 20.6 µM (inactive) and 18.2 µM (inactive), respectively.

Consider `Cn1nc(-c2ccccc2)c(C(=O)/C=C/c2ccc(F)cc2)c(N2CCCCC2)c1=O`, for which the GI50 with SK-MEL-28 is 3.79 µM (inactive); in the assay on RXF 393, 2.53 µM (inactive); in the assay on IGROV-1 it was 11.5 µM (inactive); with M14, 5.93 µM (inactive); with K562, 3.39 µM (inactive); with HOP-92, 3.85 µM (inactive). The GI50 with SF-268 is 6.35 µM (inactive); with EKVX, 16.3 µM (inactive); with SK-MEL-5, 5.73 µM (inactive); in the assay with HL-60, 0.759 µM (active).

Consider `O=C(CCn1[nH]c(=O)c(Cl)c(Cl)c1=O)NNC(=O)C[n+]1ccccc1`, for which the GI50 in the assay on SK-MEL-28, with Malme-3M, in the assay on RXF 393, with IGROV-1, in the assay with KM12 and with M14 was > 100 µM (inactive) throughout. The GI50 in the assay with HOP-62, in the assay with NCI-H226, with K562, with SK-MEL-2, in the assay with SF-268 and in the assay with EKVX was > 100 µM (inactive) in each case. Besides, the GI50 with SK-MEL-5 and in the assay with HL-60 was > 100 µM (inactive) each time.

In the case of `O=C(O)CN(c1ccccc1)S(=O)(=O)c1ccc(NC(=O)c2ccccc2)cc1`, the GI50 with SK-MEL-28, in the assay with Malme-3M, with RXF 393, with IGROV-1, in the assay on M14 and in the assay on K562 was > 100 µM (inactive) in each case. The GI50 in the assay on HOP-92, in the assay on SK-MEL-2, in the assay on SF-268, in the assay with EKVX and in the assay on HL-60 was > 100 µM (inactive) throughout.
